# What was measured:
# [1] = tested on: HeLa; assay: Cytotoxicity against human HeLa cells assessed as viable cells after 24 hrs by MTT assay; type: functional, cell-based
# [2] = tested on: HeLa; assay: Cytotoxicity against human HeLa cells assessed as viable cells after 48 hrs by MTT assay; type: functional, cell-based
# [3] = Cytotoxicity against human DU145 cells assessed as viable cells after 24 hrs by MTT assay; type: functional, cell-based; conditions: DU-145, 24 h
# [4] = Cytotoxicity against human DU145 cells assessed as viable cells after 48 hrs by MTT assay; type: functional, cell-based; conditions: DU-145, 48 h
# [5] = tested on: MCF7; assay: Cytotoxicity against human MCF7 cells assessed as viable cells after 24 hrs by MTT assay; type: functional, cell-based; conditions: MCF7, 24 h
# [6] = tested on: MCF7; assay: Cytotoxicity against human MCF7 cells assessed as viable cells after 48 hrs by MTT assay; type: functional, cell-based; conditions: MCF7, 48 h
# [7] = Cytotoxicity against human DU145 cells assessed as growth inhibition at 1.25 uM after 24 hrs by MTT assay (reference value: 1.2 to 7.8%); type: functional; conditions: DU-145, 24 h, read-out: GI
# [8] = Cytotoxicity against human DU145 cells assessed as growth inhibition at 2.5 uM after 24 hrs by MTT assay (reference value: 1.2 to 7.8%); type: functional; conditions: DU-145, 24 h, read-out: GI
# [9] = Cytotoxicity against human DU145 cells assessed as growth inhibition at 5 uM after 24 hrs by MTT assay (reference value: 1.2 to 7.8%); type: functional; conditions: DU-145, 24 h, read-out: GI
# [10] = Cytotoxicity against human DU145 cells assessed as growth inhibition at 10 uM after 24 hrs by MTT assay (reference value: 1.2 to 7.8%); type: functional; conditions: DU-145, 24 h, read-out: GI
# [11] = Cytotoxicity against human DU145 cells assessed as growth inhibition at 25 uM after 24 hrs by MTT assay (reference value: 1.2 to 7.8%); type: functional; conditions: DU-145, 24 h, read-out: GI
# [12] = Cytotoxicity against human DU145 cells assessed as growth inhibition at 50 uM after 24 hrs by MTT assay (reference value: 1.2 to 7.8%); type: functional; conditions: DU-145, 24 h, read-out: GI
# [13] = Cytotoxicity against human DU145 cells assessed as growth inhibition at 100 uM after 24 hrs by MTT assay (reference value: 1.2 to 7.8%); type: functional; conditions: DU-145, 24 h, read-out: GI
# [14] = tested on: HeLa; assay: Cytotoxicity against human HeLa cells assessed as growth inhibition at 1.25 uM after 24 hrs by MTT assay (reference value: 0 to 4.4%); type: functional; conditions: read-out: GI
# [15] = tested on: HeLa; assay: Cytotoxicity against human HeLa cells assessed as growth inhibition at 2.5 uM after 24 hrs by MTT assay (reference value: 0 to 4.4%); type: functional; conditions: read-out: GI
# [16] = tested on: HeLa; assay: Cytotoxicity against human HeLa cells assessed as growth inhibition at 5 uM after 24 hrs by MTT assay (reference value: 0 to 4.4%); type: functional; conditions: read-out: GI
# [17] = tested on: HeLa; assay: Cytotoxicity against human HeLa cells assessed as growth inhibition at 10 uM after 24 hrs by MTT assay (reference value: 0 to 4.4%); type: functional; conditions: read-out: GI
# [18] = tested on: HeLa; assay: Cytotoxicity against human HeLa cells assessed as growth inhibition at 25 uM after 24 hrs by MTT assay (reference value: 0 to 4.4%); type: functional; conditions: read-out: GI
# [19] = tested on: HeLa; assay: Cytotoxicity against human HeLa cells assessed as growth inhibition at 50 uM after 24 hrs by MTT assay (reference value: 0 to 4.4%); type: functional; conditions: read-out: GI
# [20] = tested on: HeLa; assay: Cytotoxicity against human HeLa cells assessed as growth inhibition at 100 uM after 24 hrs by MTT assay (reference value: 0 to 4.4%); type: functional; conditions: read-out: GI
# [21] = tested on: MCF7; assay: Cytotoxicity against human MCF7 cells assessed as growth inhibition at 1.25 uM after 24 hrs by MTT assay (reference value: 2.7 to 9.3%); type: functional; conditions: MCF7, 24 h, read-out: GI
# [22] = tested on: MCF7; assay: Cytotoxicity against human MCF7 cells assessed as growth inhibition at 2.5 uM after 24 hrs by MTT assay (reference value: 2.7 to 9.3%); type: functional; conditions: MCF7, 24 h, read-out: GI
# [23] = tested on: MCF7; assay: Cytotoxicity against human MCF7 cells assessed as growth inhibition at 5 uM after 24 hrs by MTT assay (reference value: 2.7 to 9.3%); type: functional; conditions: MCF7, 24 h, read-out: GI
# [24] = tested on: MCF7; assay: Cytotoxicity against human MCF7 cells assessed as growth inhibition at 10 uM after 24 hrs by MTT assay (reference value: 2.7 to 9.3%); type: functional; conditions: MCF7, 24 h, read-out: GI
# [25] = tested on: MCF7; assay: Cytotoxicity against human MCF7 cells assessed as growth inhibition at 25 uM after 24 hrs by MTT assay (reference value: 2.7 to 9.3%); type: functional; conditions: MCF7, 24 h, read-out: GI
# [26] = tested on: MCF7; assay: Cytotoxicity against human MCF7 cells assessed as growth inhibition at 50 uM after 24 hrs by MTT assay (reference value: 2.7 to 9.3%); type: functional; conditions: MCF7, 24 h, read-out: GI
# [27] = tested on: MCF7; assay: Cytotoxicity against human MCF7 cells assessed as growth inhibition at 100 uM after 24 hrs by MTT assay (reference value: 2.7 to 9.3%); type: functional; conditions: MCF7, 24 h, read-out: GI
# [28] = Cytotoxicity against human DU145 cells assessed as viable cells after 24 hrs by Solid plate-based spot culture growth inhibition assay; type: functional, cell-based; conditions: DU-145, 24 h
# [29] = tested on: MCF7; assay: Cytotoxicity against human MCF7 cells assessed as viable cells after 24 hrs by Solid plate-based spot culture growth inhibition assay; type: functional, cell-based; conditions: MCF7, 24 h
# [30] = tested on: HeLa; assay: Cytotoxicity against human HeLa cells assessed as growth inhibition at 5 uM by MTT assay; type: functional, cell-based; conditions: TDE = time-dependent effect
# [31] = tested on: HeLa; assay: Cytotoxicity against human HeLa cells assessed as growth inhibition at 5 uM after 48 hrs by MTT assay; type: functional; conditions: read-out: GI
Compound,IC50 [1],IC50 [2],IC50 [3],IC50 [4],IC50 [5],IC50 [6],inhibition of growth at 1.25 µM [7],inhibition of growth at 2.5 µM [8],inhibition of growth at 5 µM [9],inhibition of growth at 10 µM [10],inhibition of growth at 25 µM [11],inhibition of growth at 50 µM [12],inhibition of growth at 100 µM [13],inhibition of growth at 1.25 µM [14],inhibition of growth at 2.5 µM [15],inhibition of growth at 5 µM [16],inhibition of growth at 10 µM [17],inhibition of growth at 50 µM [19],inhibition of growth at 100 µM [20],inhibition of growth at 1.25 µM [21],other results
CO/N=C(\Cc1cc(Br)c(OC)c(Br)c1)C(=O)NCCCNCCCCNCCCNC(=O)/C(Cc1cc(Br)c(OC)c(Br)c1)=N/OC,26.3 µM,25 µM,26.2 µM,27.7 µM,24.8 µM,19.1 µM,24.6%,24.1%,26.1%,34.3%,55%,99.2%,98.7%,0%,0%,0%,20.2%,97.8%,97.4%,15.4%,inhibition of growth at 25 µM [18]: 70.4%; inhibition of growth at 2.5 µM [22]: 20.8%; inhibition of growth at 5 µM [23]: 22.3%; inhibition of growth at 10 µM [24]: 33.1%; inhibition of growth at 25 µM [25]: 55.5%; inhibition of growth at 50 µM [26]: 98.4%; inhibition of growth at 100 µM [27]: 98.1%
CO/N=C(\Cc1cc(Br)c(OC)c(Br)c1)C(=O)NCCNCCNC(=O)/C(Cc1cc(Br)c(OC)c(Br)c1)=N/OC,25.8 µM,10.8 µM,25.8 µM,27.9 µM,27.1 µM,30.9 µM,19.9%,21.3%,22.1%,20.2%,26.7%,99%,95.6%,11%,4.8%,0.1%,24.5%,95%,97.1%,11.4%,inhibition of growth at 25 µM [18]: 80.1%; inhibition of growth at 2.5 µM [22]: 23.9%; inhibition of growth at 5 µM [23]: 20.3%; inhibition of growth at 10 µM [24]: 23%; inhibition of growth at 25 µM [25]: 46.2%; inhibition of growth at 50 µM [26]: 96.9%; inhibition of growth at 100 µM [27]: 96.9%
COc1c(Br)cc(C/C(=N\OCc2ccccc2)C(=O)NCCCNCCCCNCCCNC(=O)/C(Cc2cc(Br)c(OC)c(Br)c2)=N/OCc2ccccc2)cc1Br,4 µM,2.9 µM,4 µM,4.6 µM,4.5 µM,3.4 µM,15.5%,24.4%,68.2%,98.5%,98.6%,98.4%,97.3%,0%,23.5%,93.5%,98.3%,96.9%,94.7%,19.2%,inhibition of growth at 2.5 µM [22]: 30%; inhibition of growth at 5 µM [23]: 58.6%; inhibition of growth at 10 µM [24]: 98.9%; inhibition of growth at 25 µM [25]: 97.6%; inhibition of growth at 50 µM [26]: 97.7%; inhibition of growth at 100 µM [27]: 96.4%
COc1c(Br)cc(C/C(=N\OCc2ccccc2)C(=O)NCCCCCNC(=O)/C(Cc2cc(Br)c(OC)c(Br)c2)=N/OCc2ccccc2)cc1Br,> 100 µM,> 100 µM,> 100 µM,> 100 µM,> 100 µM,> 100 µM,–,–,–,–,–,–,–,–,–,–,–,–,–,–,–
COc1c(Br)cc(C/C(=N\O)C(=O)NCCNCCNC(=O)/C(Cc2cc(Br)c(OC)c(Br)c2)=N/O)cc1Br,> 100 µM,> 100 µM,> 100 µM,> 100 µM,> 100 µM,> 100 µM,–,–,–,–,–,–,–,–,–,–,–,–,–,–,–
CO/N=C(\Cc1cc(Br)c(OC)c(Br)c1)C(=O)NCCCCCNC(=O)/C(Cc1cc(Br)c(OC)c(Br)c1)=N/OC,> 100 µM,> 100 µM,> 100 µM,> 100 µM,> 100 µM,> 100 µM,–,–,–,–,–,–,–,–,–,–,–,–,–,–,–
COc1c(Br)cc(C/C(=N\O)C(=O)NCCCCCNC(=O)/C(Cc2cc(Br)c(OC)c(Br)c2)=N/O)cc1Br,> 100 µM,> 100 µM,> 100 µM,> 100 µM,> 100 µM,> 100 µM,–,–,–,–,–,–,–,–,–,–,–,–,–,–,–
COc1c(Br)cc(C/C(=N\O)C(=O)NCCCN(C)CCCCN(C)CCCNC(=O)/C(Cc2cc(Br)c(OC)c(Br)c2)=N/O)cc1Br,–,–,–,–,–,–,–,–,–,–,–,–,–,–,–,–,–,–,–,–,IC50 [28]: 1.6 µM; IC50 [29]: 1.6 µM
COc1c(Br)cc(C/C(=N\OCc2ccccc2)C(=O)NCCNCCNC(=O)/C(Cc2cc(Br)c(OC)c(Br)c2)=N/OCc2ccccc2)cc1Br,> 100 µM,> 100 µM,> 100 µM,> 100 µM,> 100 µM,> 100 µM,–,–,–,–,–,–,–,–,–,–,–,–,–,–,–
COc1c(Br)cc(C/C(=N\O)C(=O)NCCCNCCCCNCCCNC(=O)/C(Cc2cc(Br)c(OC)c(Br)c2)=N/O)cc1Br,> 100 µM,> 100 µM,> 100 µM,> 100 µM,> 100 µM,> 100 µM,–,–,–,–,–,–,–,–,–,–,–,–,–,–,growth inhibition (GI) [30]: tde; inhibition of growth at 5 µM [31]: 90%

# — ChEMBL document CHEMBL3774387, “Synthesis and anticancer evaluation of spermatinamine analogues” (Bioorg Med Chem Lett, 2016)
